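Grown in 96-well plates, cells were treated for 48 hours with each compound at five concentrations. Insufficient inhibition: endpoint recorded as highest concentration tested. Here, GI50 denotes the concentration required for 50% inhibition of growth. TGI marks complete inhibition of growth.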
Assays:
Test in all cases: NCI anticancer screen, dose series, 48 h
EKVX NSCLC = test system: EKVX NSCLC
LOX IMVI melanoma = test system: LOX IMVI melanoma
NCI/ADR-RES ovarian = test system: NCI/ADR-RES ovarian
NCI-H226 lung = test system: NCI-H226 lung
SF-268 CNS = test system: SF-268 CNS
BT-549 breast = test system: BT-549 breast
A549 NSCLC = test system: A549 NSCLC
M14 melanoma = test system: M14 melanoma
MCF7 breast = test system: MCF7 breast
UO-31 renal = test system: UO-31 renal
HL-60(TB) leukemia = test system: HL-60(TB) leukemia
SN12C renal = test system: SN12C renal
SNB-19 CNS = test system: SNB-19 CNS
NCI-H522 lung = test system: NCI-H522 lung
SW-620 colon = test system: SW-620 colon
U251 CNS = test system: U251 CNS
SF-539 CNS = test system: SF-539 CNS
OVCAR-5 ovarian = test system: OVCAR-5 ovarian
MDA-MB-231 breast = test system: MDA-MB-231 breast
K-562 leukemia = test system: K-562 leukemia
T-47D breast = test system: T-47D breast
MALME-3M melanoma = test system: MALME-3M melanoma
NCI-H23 lung = test system: NCI-H23 lung
HS 578T breast = test system: HS 578T breast
MDA-MB-435 = test system: MDA-MB-435
786-0 renal = test system: 786-0 renal
MOLT-4 leukemia = test system: MOLT-4 leukemia
A498 renal = test system: A498 renal
NCI-H460 lung = test system: NCI-H460 lung
UACC-62 melanoma = test system: UACC-62 melanoma
DU-145 prostate = test system: DU-145 prostate
HCT-116 colon = test system: HCT-116 colon
OVCAR-8 ovarian = test system: OVCAR-8 ovarian
HCT-15 colon = test system: HCT-15 colon
OVCAR-4 ovarian = test system: OVCAR-4 ovarian
SF-295 CNS = test system: SF-295 CNS
COLO 205 colon = test system: COLO 205 colon
HOP-62 NSCLC = test system: HOP-62 NSCLC
SK-MEL-28 melanoma = test system: SK-MEL-28 melanoma
SK-OV-3 ovarian = test system: SK-OV-3 ovarian
SNB-75 CNS = test system: SNB-75 CNS
HOP-92 NSCLC = test system: HOP-92 NSCLC
SK-MEL-5 melanoma = test system: SK-MEL-5 melanoma
IGROV1 ovarian = test system: IGROV1 ovarian
KM12 colon = test system: KM12 colon
OVCAR-3 ovarian = test system: OVCAR-3 ovarian
HCC-2998 colon = test system: HCC-2998 colon
RPMI-8226 leukemia = test system: RPMI-8226 leukemia
TK-10 renal = test system: TK-10 renal
PC-3 prostate = test system: PC-3 prostate
ACHN renal = test system: ACHN renal
SK-MEL-2 melanoma = test system: SK-MEL-2 melanoma
CCRF-CEM leukemia = test system: CCRF-CEM leukemia
HT29 colon = test system: HT29 colon
SR leukemia = test system: SR leukemia

## COC(=O)c1ccc2c(c1)c1c(C)c3ccncc3c(C)c1n2C
EKVX NSCLC
  GI50: 274 nM
  TGI: 36200 nM
LOX IMVI melanoma
  GI50: 88.7 nM
  TGI: 10800 nM
NCI/ADR-RES ovarian
  GI50: 411 nM
  TGI: 62700 nM
NCI-H226 lung
  GI50: 352 nM
  TGI: 13200 nM
SF-268 CNS
  GI50: 114 nM
  TGI: > 100000 nM
BT-549 breast
  GI50: 925 nM
  TGI: 36200 nM
A549 NSCLC
  GI50: 484 nM
  TGI: > 100000 nM
M14 melanoma
  GI50: 453 nM
  TGI: 36300 nM
MCF7 breast
  GI50: 267 nM
  TGI: 1770 nM
UO-31 renal
  GI50: 71.7 nM
  TGI: 77500 nM
HL-60(TB) leukemia
  GI50: 1130 nM
  TGI: 39400 nM
SN12C renal
  GI50: 214 nM
  TGI: > 100000 nM
SNB-19 CNS
  GI50: 206 nM
  TGI: > 100000 nM
NCI-H522 lung
  GI50: 538 nM
  TGI: 32000 nM
SW-620 colon
  GI50: 65.8 nM
  TGI: 58300 nM
U251 CNS
  GI50: 322 nM
  TGI: > 100000 nM
SF-539 CNS
  GI50: 332 nM
  TGI: 45100 nM
OVCAR-5 ovarian
  GI50: 718 nM
  TGI: > 100000 nM
MDA-MB-231 breast
  GI50: 391 nM
  TGI: > 100000 nM
K-562 leukemia
  GI50: 200 nM
  TGI: > 100000 nM
T-47D breast
  GI50: 661 nM
  TGI: > 100000 nM
MALME-3M melanoma
  GI50: 201 nM
  TGI: 11200 nM
NCI-H23 lung
  GI50: 304 nM
  TGI: 16100 nM
HS 578T breast
  GI50: 561 nM
  TGI: > 100000 nM
MDA-MB-435
  GI50: 437 nM
  TGI: 22900 nM
786-0 renal
  GI50: 268 nM
  TGI: 18000 nM
MOLT-4 leukemia
  GI50: 99.2 nM
  TGI: 44700 nM
A498 renal
  GI50: 583 nM
  TGI: 13700 nM
NCI-H460 lung
  GI50: 296 nM
  TGI: 12600 nM
UACC-62 melanoma
  GI50: 191 nM
  TGI: 2630 nM
DU-145 prostate
  GI50: 313 nM
  TGI: > 100000 nM
HCT-116 colon
  GI50: 49.5 nM
  TGI: > 100000 nM
OVCAR-8 ovarian
  GI50: 121 nM
  TGI: > 100000 nM
HCT-15 colon
  GI50: 215 nM
  TGI: 21200 nM
OVCAR-4 ovarian
  GI50: 396 nM
  TGI: 30800 nM
SF-295 CNS
  GI50: 64.7 nM
  TGI: 7480 nM
COLO 205 colon
  GI50: 113 nM
  TGI: > 100000 nM
HOP-62 NSCLC
  GI50: 106 nM
  TGI: > 100000 nM
SK-MEL-28 melanoma
  GI50: 441 nM
  TGI: 50100 nM
SK-OV-3 ovarian
  GI50: 471 nM
  TGI: > 100000 nM
SNB-75 CNS
  GI50: 104 nM
  TGI: 15900 nM
HOP-92 NSCLC
  GI50: 378 nM
  TGI: > 100000 nM
SK-MEL-5 melanoma
  GI50: 232 nM
  TGI: 912 nM
IGROV1 ovarian
  GI50: 80.1 nM
  TGI: > 100000 nM
KM12 colon
  GI50: 262 nM
  TGI: > 100000 nM
OVCAR-3 ovarian
  GI50: 536 nM
  TGI: 47200 nM
HCC-2998 colon
  GI50: 3860 nM
  TGI: > 100000 nM
RPMI-8226 leukemia
  GI50: 259 nM
  TGI: 25100 nM
TK-10 renal
  GI50: 890 nM
  TGI: 70300 nM
PC-3 prostate
  GI50: 300 nM
  TGI: > 100000 nM
ACHN renal
  GI50: 51.9 nM
  TGI: > 100000 nM
SK-MEL-2 melanoma
  GI50: 750 nM
  TGI: 31600 nM
CCRF-CEM leukemia
  GI50: 518 nM
  TGI: > 100000 nM
HT29 colon
  GI50: 133 nM
  TGI: > 100000 nM
SR leukemia
  GI50: 57.5 nM
  TGI: 3390 nM
